# What was measured:
# Experiment in all cases: relative viability (nuclei count vs DMSO), 5 days (fraction); higher = more cells survive
# [1] = compound: C#Cc1cccc(Nc2ncnc3cc(OCCOC)c(OCCOC)cc23)c1 [Erlotinib] + CC(C)C[C@H](NC(=O)[C@H](Cc1ccccc1)NC(=O)c1cnccn1)B(O)O [Bortezomib] (partner 0.002 µM)
# Summary of the method: (§1)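 Cells from lung cancer lines were seeded into 1536-well plates and, one day later, dosed by pin tool. Treatments were either a single drug or a fixed dose of an anchor drug with five library-drug doses (not always all listed) in √10 steps. After 5 days, nuclei were stained in a one-step fixation (final 0.05% Triton X-100, 1% formaldehyde, 1 ug/ml Hoechst) and counted on 4× images, and relative viability is the treated-to-vehicle nuclei ratio, as the median of duplicate plates.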
# [2] = compound: C#Cc1cccc(Nc2ncnc3cc(OCCOC)c(OCCOC)cc23)c1 [Erlotinib] + CCNC(=O)c1noc(-c2cc(C(C)C)c(O)cc2O)c1-c1ccc(CN2CCOCC2)cc1 [Luminespib] (partner 0.01 µM)
# Summary of the method: as §1
# [3] = compound: O=C(Nc1c[nH]nc1-c1nc2ccc(CN3CCOCC3)cc2[nH]1)NC1CC1 [AT9283] + COc1cccc2cc(-c3nc([C@H]4CC[C@H](C(=O)O)CC4)n4ncnc(N)c34)[nH]c12 [OSI-027] (partner 0.5 µM)
# Summary of the method: as §1
# [4] = compound: O=C(Nc1c[nH]nc1-c1nc2ccc(CN3CCOCC3)cc2[nH]1)NC1CC1 [AT9283] + Cc1nc(NC(=O)N2CCC[C@H]2C(N)=O)sc1-c1ccnc(C(C)(C)C(F)(F)F)c1 [Alpelisib] (partner 2 µM)
# Summary of the method: as §1
# [5] = compound: O=C(Nc1c[nH]nc1-c1nc2ccc(CN3CCOCC3)cc2[nH]1)NC1CC1 [AT9283] + Nc1ncn([C@H]2C[C@H](O)[C@@H](CO)O2)c(=O)n1 [Decitabine] (partner 2 µM)
# Summary of the method: as §1
Cell Line,relative viability ([1]; first compound 0.02 µM),relative viability ([1]; first compound 0.2 µM),relative viability ([1]; first compound 2 µM),relative viability ([2]; first compound 0.02 µM),relative viability ([2]; first compound 0.2 µM),relative viability ([2]; first compound 0.6325 µM),relative viability ([2]; first compound 2 µM),relative viability ([3]; first compound 0.003 µM),relative viability ([3]; first compound 0.03 µM),relative viability ([3]; first compound 0.09487 µM),relative viability ([3]; first compound 0.3 µM),relative viability ([4]; first compound 0.003 µM),relative viability ([4]; first compound 0.03 µM),relative viability ([4]; first compound 0.09487 µM),relative viability ([4]; first compound 0.3 µM),relative viability ([5]; first compound 0.003 µM),relative viability ([5]; first compound 0.03 µM),relative viability ([5]; first compound 0.09487 µM),relative viability ([5]; first compound 0.3 µM),relative viability ([1]; first compound 0.6325 µM)
LC-2-ad,1.02,1.02,0.868,1.13,0.976,1.17,0.745,0.766,0.476,0.249,0.229,0.933,0.319,0.106,0.107,0.872,0.685,0.471,0.255,–
LCLC-97TM1,0.528,0.747,0.464,0.901,0.798,0.948,0.824,0.539,0.288,0.0798,0.108,0.198,0.151,0.11,0.111,0.199,0.175,0.104,0.089,0.529
LCLC-103H,1.16,1.2,0.992,0.99,0.884,1.05,0.821,0.396,0.451,0.415,0.276,0.89,1.09,1.11,0.332,0.755,0.774,0.444,0.35,1.1
LOU-NH91,0.525,0.497,0.458,0.412,0.297,0.364,0.31,0.697,0.698,0.599,0.388,0.695,0.684,0.531,0.427,0.83,0.77,0.522,0.509,0.484
LU99A,1.34,1.1,0.899,0.27,0.257,0.231,0.223,0.297,0.233,0.166,0.155,0.489,0.222,0.144,0.152,0.868,0.404,0.195,0.226,1.24
LXF-289,0.964,0.999,0.857,0.813,0.622,0.707,0.634,0.81,0.769,0.166,0.0735,0.964,1.01,0.132,0.105,0.354,0.423,0.214,0.139,0.921
NCI-H23,0.915,–,0.917,0.218,–,0.202,0.217,0.666,0.674,0.344,0.281,0.707,0.668,0.396,0.168,0.26,0.293,0.228,0.246,1.32
NCI-H322M,1.21,1.17,0.57,0.806,0.595,0.528,0.443,0.396,0.306,0.472,0.464,0.846,0.906,0.544,0.396,0.775,0.531,0.588,0.462,1.12
NCI-H460,1.09,1.12,1.09,0.03,0.0268,0.033,0.0356,0.678,0.81,0.248,0.0423,0.516,0.43,0.0573,0.017,0.434,0.466,0.24,0.078,1.52
NCI-H520,0.75,0.261,0.455,0.242,0.23,0.253,0.248,0.256,0.198,0.185,0.172,1.01,0.338,0.274,0.239,0.381,0.297,0.272,0.171,0.722
NCI-H596,1.01,0.993,0.93,1.07,0.848,0.893,0.878,0.704,0.779,0.665,0.476,0.508,0.509,0.531,0.496,1.07,0.946,0.934,0.783,1.09
NCI-H647,1.05,0.961,0.795,0.218,0.119,0.142,0.0816,0.782,0.524,0.173,0.132,1.11,0.355,0.128,0.124,0.427,0.401,0.205,0.127,1.36
NCI-H650,0.749,0.88,–,0.822,0.783,0.679,0.794,0.519,0.528,0.379,0.169,1,0.951,0.252,0.162,0.319,0.333,0.229,0.162,0.958
NCI-H661,0.887,0.555,0.646,0.903,0.933,0.882,0.736,0.767,0.529,0.313,0.344,0.627,0.427,0.329,0.36,0.579,0.422,0.406,0.272,0.881
NCI-H727,0.785,0.844,0.701,0.345,–,0.3,0.191,0.657,0.483,0.487,0.324,0.669,0.434,0.313,0.235,0.697,0.642,0.754,0.517,1
NCI-H838,0.8,0.491,0.694,0.321,0.313,0.427,0.303,0.471,0.496,0.178,0.195,1.06,0.367,0.262,0.269,0.436,0.293,0.265,0.226,1.18

# Reference: the supplement of paper PMC10307832
